This is an account of results in publication PMC5794853 (Scientific Reports, 2018).

Series [1] deals with T1, BsRelQ (Bacillus subtilis, UniProt O31611, E113A).
T1 construct: gene yjbM; RelQ / SAS1, homotetramer
The series is described as follows: stimulation of ppGpp synthesis, HPLC. Format: biochemical. The following applies: allosteric activator, 200 µM; 5 mM ATP, 0.25 mM GDP/GTP, pH 7.5, 37 °C.

Series [2] addresses T2, BsRelQ (Bacillus subtilis, UniProt O31611, E178A).
T2 construct: gene yjbM; RelQ / SAS1, homotetramer
In words: stimulation of ppGpp synthesis, HPLC. Format: biochemical. The following applies: allosteric activator, 200 µM; 5 mM ATP, 0.25 mM GDP/GTP, pH 7.5, 37 °C.

The target in series [3] is T3, BsRelQ (Bacillus subtilis, UniProt O31611, Q174A).
T3 construct: gene yjbM; RelQ / SAS1, homotetramer
The series is described as follows: stimulation of ppGpp synthesis, HPLC. It counts as biochemical. The following applies: allosteric activator, 200 µM; 5 mM ATP, 0.25 mM GDP/GTP, pH 7.5, 37 °C.

For series [4], the target named is T4, BsRelQ (Bacillus subtilis, UniProt O31611, H111A).
T4 construct: gene yjbM; RelQ / SAS1, homotetramer
The series is described as follows: stimulation of ppGpp synthesis, HPLC. The following applies: allosteric activator, 200 µM; 5 mM ATP, 0.25 mM GDP/GTP, pH 7.5, 37 °C. Format: biochemical.

Series [5] deals with T5, BsRelQ (Bacillus subtilis, UniProt O31611).
T5 construct: gene yjbM; RelQ / SAS1, homotetramer
T5 sequence (O31611 1-211): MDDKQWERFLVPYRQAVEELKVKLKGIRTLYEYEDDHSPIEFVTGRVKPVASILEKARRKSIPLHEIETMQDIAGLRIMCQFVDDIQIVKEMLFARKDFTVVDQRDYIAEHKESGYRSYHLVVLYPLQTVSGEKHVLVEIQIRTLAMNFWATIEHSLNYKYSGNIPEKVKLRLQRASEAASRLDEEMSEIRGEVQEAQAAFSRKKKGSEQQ
In words: stimulation of ppGpp synthesis, HPLC. It counts as biochemical. The following applies: allosteric activator, 0-250 µM; 5 mM ATP, pH 7.5, 20 mM MgCl2.

Series [6] concerns the target T6, SaRelP (Staphylococcus aureus, UniProt W8U368).
T6 construct: gene ywaC; full length, N-terminal hexahistidine tag, pET24d(+), expressed in E. coli BL21(DE3), homotetramer
The series is described as follows: X-ray crystal structure. The following applies: active site (ATP site), Mg2+, 5 mM AMPCPP, non-hydrolysable ATP analogue. Format: binding.

Series [7] concerns the target RelP from Staphylococcus aureus (SaRelP) (Staphylococcus aureus strain Newman). In words: crystal structure; apo SaRelP, 15 mg/ml, sitting drop at room temperature, 0.1 M CHES pH 9.5, 40% (v/v) PEG600; 2.25 Å; homotetramer.
Series [8] deals with the molecule itself. In words: crystal structure; apo BsRelP, 10 mg/ml, sitting drop at room temperature, 0.1 M CHES pH 9.5, 30% (w/v) PEG 3000; 3.3 Å; homotetramer.

T3 sequence (O31611 whole entry Q174A): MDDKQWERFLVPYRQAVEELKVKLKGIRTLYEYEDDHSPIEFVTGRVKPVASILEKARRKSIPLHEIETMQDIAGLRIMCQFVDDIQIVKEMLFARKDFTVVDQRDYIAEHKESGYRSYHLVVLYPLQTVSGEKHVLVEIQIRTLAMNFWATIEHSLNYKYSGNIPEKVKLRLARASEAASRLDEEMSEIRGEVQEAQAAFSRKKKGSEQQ
T2 sequence (O31611 whole entry E178A): as the sequence (O31611 whole entry Q174A) above, with A174Q, E178A counted along it
T4 sequence (O31611 whole entry H111A): as the sequence (O31611 whole entry Q174A) above, with H111A, A174Q counted along it
T1 sequence (O31611 whole entry E113A): as the sequence (O31611 whole entry Q174A) above, with E113A, A174Q counted along it

On to `Nc1nc2c(ncn2[C@@H]2O[C@H](COP(=O)(O)OP(=O)(O)OP(=O)(O)O)[C@@H](OP(=O)(O)OP(=O)(O)O)[C@H]2O)c(=O)[nH]1` [pppGpp], for which the “stimulation of ppGpp synthesis, HPLC” value in series [1] is “Variation of His111 and Glu113 does not affect stimulation of BsRelQ”; in series [2], “upon replacement of Gln174 and Glu178 the pppGpp-stimulatory effect is decreased”; in series [3] it was “upon replacement of Gln174 and Glu178 the pppGpp-stimulatory effect is decreased”; in series [4], “Variation of His111 and Glu113 does not affect stimulation of BsRelQ”; in series [5], “determining the (p)ppGpp synthesis BsRelQ in presence of different concentrations of pppGpp”.
Regarding `Nc1ncnc2c1ncn2[C@@H]1O[C@H](COP(=O)(O)CP(=O)(O)OP(=O)(O)O)[C@@H](O)[C@H]1O` [AMPCPP], in series [6], the X-ray crystal structure entry is on record as “solve the structure of SaRelP in presence of AMPCPP”.
In turn, “RelP from Staphylococcus aureus (SaRelP) (enzyme)” displayed a stoichiometry N in series [7] of 4.

B1: RelP from Bacillus subtilis (BsRelP) (enzyme, Bacillus subtilis PY79)
chain: MDLSVTHMDDLKTVMEDWKNELLVYKFALDALDTKFSIISQEYNLIHGHNPIEHTKSRVKSFESIVNKLMRKGCEITTKEMKEHIHDIAGVRIICSFISDIYNVVNVLKQHEDLRIVKVKDYIQTPKPNGYRSLHLIIEMPVNLTNRVEYVKAEIQIRTIAMDFWASLEHKIYYKLNNDVPKQLTDELKEAAEIAHYLDEKMLGIKKEVD
notes: RelP (SAS2, YwaC), small (p)ppGpp synthetase of Bacillus subtilis PY79, gene ywaC, amplified from genomic DNA; The strep-tag was encoded by the forward primer; cloned into pET24d(+) at NcoI/XhoI; No tag cleavage is described; also called SAS2; YwaC; source: E. coli BL21 (DE3), purified (StrepTrap, SEC)
B1: the “stoichiometry N” value in series [8] worked out at 4.

As usually defined, the stoichiometry N is the number of molecules, sites or subunits per partner or assembly.
